In brackets after ≈: the same amount, converted by molar mass.
Legend:
Format in all cases: cell-based
Aspergillus flavus [1] = assay: MIC, YAG medium; conditions: 24 h at 35° C, MIC banded into grades; for MIC: Aspergillus flavus, 24 h, read-out: MIC grade, A. flavus
Procedure, shortened: (§1)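 Spores from 5-day Sabouraud agar cultures were suspended in YAG medium (1% glucose, 1% ammonium chloride, 0.5% yeast extract) at final inocula of 1−2×10^4 cfu/mL against doubling dilutions of compound (50-0.05 mg/L; 0.5-0.0005 mg/L on repeat). Plates were incubated 24 h at 35° C. MIC was the lowest concentration giving >70% growth inhibition by OD485 versus drug-free control.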

Aspergillus niger [2] = assay: MIC, YAG medium; conditions: 24 h at 35° C, MIC banded into grades; for MIC: Aspergillus niger, read-out: MIC grade, A. niger
Procedure, shortened: as §1

[3] = system: Aspergillus fumigatus AF293; assay: MIC, YAG medium; conditions: 24 h at 35° C, MIC banded into grades; for MIC: Aspergillus fumigatus, read-out: MIC grade, A. fumigatus
Procedure, shortened: as §1

Aspergillus terreus AT49 [4] = assay: MIC, YAG medium; conditions: 24 h at 35° C, MIC banded into grades; for MIC: Aspergillus terreus, read-out: MIC grade, A. terreus 49
Procedure, shortened: as §1

Aspergillus terreus AT4 [5] = assay: MIC, YAG medium; conditions: 24 h at 35° C, MIC banded into grades; for MIC: Aspergillus terreus, read-out: MIC grade, A. terreus
Procedure, shortened: as §1

[6] = system: Aspergillus fumigatus AF210; assay: MIC, YAG medium; conditions: 24 h at 35° C, MIC banded into grades; for MIC: Aspergillus fumigatus, read-out: MIC grade, A. fumigatus 210
Procedure, shortened: as §1

Aspergillus flavus [7] = assay: MIC, RPMI medium; conditions: MIC banded into grades; for MIC: Aspergillus flavus, read-out: MIC grade, A. flavus
Procedure, shortened: (§2)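 Broth microdilution in RPMI with 2% glucose, 0.135 M MOPS pH 7.0; compounds as doubling dilutions, 50-0.05 mg/L, inoculum 1−2×10^4 cfu/mL. Incubated 24-48 h at 35° C; growth by OD 485 nm. MIC is lowest concentration giving >80% growth inhibition versus drug-free control.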

Aspergillus niger [8] = assay: MIC, RPMI medium; conditions: MIC banded into grades; for MIC: Aspergillus niger, read-out: MIC grade, A. niger
Procedure, shortened: as §2

[9] = system: Aspergillus fumigatus AF293; assay: MIC, RPMI medium; conditions: for MIC: Aspergillus fumigatus, AF293, MIC banded into grades, read-out: MIC grade, A. fumigatus
Procedure, shortened: as §2

Aspergillus terreus AT49 [10] = assay: MIC, RPMI medium; conditions: for MIC: Aspergillus terreus, AT49, MIC banded into grades, read-out: MIC grade, A. terreus 49
Procedure, shortened: as §2

Aspergillus terreus AT4 [11] = assay: MIC, RPMI medium; conditions: for MIC: Aspergillus terreus, AT4, MIC banded into grades, read-out: MIC grade, A. terreus
Procedure, shortened: as §2

[12] = system: Aspergillus fumigatus AF210; assay: MIC, RPMI medium; conditions: for MIC: Aspergillus fumigatus, AF210, MIC banded into grades, read-out: MIC grade, A. fumigatus 210
Procedure, shortened: as §2

| Structure (SMILES) | MIC (Aspergillus flavus [1]) | MIC (Aspergillus niger [2]) | MIC [3] | MIC (Aspergillus terreus AT49 [4]) | MIC (Aspergillus terreus AT4 [5]) | MIC [6] | MIC (Aspergillus flavus [7]) | MIC (Aspergillus niger [8]) | MIC [9] | MIC (Aspergillus terreus AT49 [10]) | MIC (Aspergillus terreus AT4 [11]) | MIC [12] | further results |
| --- | --- | --- | --- | --- | --- | --- | --- | --- | --- | --- | --- | --- | --- |
| COCCn1c(C)c(F)c(-c2ccccc2)c1C(=O)C(=O)Nc1ccc(N2CCN(c3cc(C)cc(C)n3)CC2)cc1 [Example 94, N-{4-[4-(4,6-Dimethyl-pyridin-2-yl)-piperazin-1-yl]-phenyl}-2-[4-fluoro-1-(2-methoxy-ethyl)-5-methyl-3-phenyl-1H-pyrrol-2-yl]-2-oxo-acetamide] | 1 to 10 µg/mL (≈ 1.76 to 17.6 µM) | 1 to 10 µg/mL (≈ 1.76 to 17.6 µM) | < 1 µg/mL | < 1 µg/mL | < 1 µg/mL | < 1 µg/mL | > 10 µg/mL | 1 to 10 µg/mL (≈ 1.76 to 17.6 µM) | < 1 µg/mL | 1 to 10 µg/mL (≈ 1.76 to 17.6 µM) | 1 to 10 µg/mL (≈ 1.76 to 17.6 µM) | 1 to 10 µg/mL (≈ 1.76 to 17.6 µM) | – |
| COCc1cc(-c2ccccc2)c(C(=O)C(=O)Nc2ccc(N3CCN(c4cc(C)cc(C)n4)CC3)cc2)n1COC [Example 131, 2-(1,5-Bis-methoxymethyl-3-phenyl-1H-pyrrol-2-yl)-N-{4-[4-(4,6-dimethyl-pyridin-2-yl)-piperazine-1-yl]-phenyl}-2-oxo-acetamide] | 1 to 10 µg/mL (≈ 1.76 to 17.6 µM) | 1 to 10 µg/mL (≈ 1.76 to 17.6 µM) | 1 to 10 µg/mL (≈ 1.76 to 17.6 µM) | 1 to 10 µg/mL (≈ 1.76 to 17.6 µM) | 1 to 10 µg/mL (≈ 1.76 to 17.6 µM) | 1 to 10 µg/mL (≈ 1.76 to 17.6 µM) | > 10 µg/mL | 1 to 10 µg/mL (≈ 1.76 to 17.6 µM) | > 10 µg/mL | 1 to 10 µg/mL (≈ 1.76 to 17.6 µM) | 1 to 10 µg/mL (≈ 1.76 to 17.6 µM) | > 10 µg/mL | – |
| COCCn1ccc(C(C)C)c1C(=O)C(=O)Nc1ccc(N2CCN(c3cc(C)cc(C)n3)CC2)cc1 [Example 83, N-{4-[4-(4,6-Dimethyl-pyridin-2-yl)-piperazin-1-yl]-phenyl}-2-[3-isopropyl-1-(2-methoxy-ethyl)-1H-pyrrol-2-yl]-2-oxo-acetamide] | > 10 µg/mL | > 10 µg/mL | 1 to 10 µg/mL (≈ 1.99 to 19.9 µM) | 1 to 10 µg/mL (≈ 1.99 to 19.9 µM) | 1 to 10 µg/mL (≈ 1.99 to 19.9 µM) | 1 to 10 µg/mL (≈ 1.99 to 19.9 µM) | > 10 µg/mL | > 10 µg/mL | > 10 µg/mL | > 10 µg/mL | > 10 µg/mL | > 10 µg/mL | – |
| Cc1cc(-c2ccccc2)c(C(=O)C(=O)Nc2cccc3c(N4CCN(C)CC4)cccc23)n1C [Example 49, 2-(1,5-Dimethyl-3-phenyl-1H-pyrrol-2-yl)-N-[5-(4-methyl-piperazin-1-yl)-naphthalen-1-yl]-2-oxo-acetamide] | < 1 µg/mL | > 10 µg/mL | 1 to 10 µg/mL (≈ 2.14 to 21.4 µM) | < 1 µg/mL | > 10 µg/mL | 1 to 10 µg/mL (≈ 2.14 to 21.4 µM) | 1 to 10 µg/mL (≈ 2.14 to 21.4 µM) | > 10 µg/mL | 1 to 10 µg/mL (≈ 2.14 to 21.4 µM) | 1 to 10 µg/mL (≈ 2.14 to 21.4 µM) | 1 to 10 µg/mL (≈ 2.14 to 21.4 µM) | > 10 µg/mL | – |
| COCCn1c(C)cc(-c2ccccc2)c1C(=O)C(=O)Nc1ccc(N2CCCCC2)c(F)c1 [Example 119, N-(3-Fluoro-4-piperdin-1-yl-phenyl)-2-[1-(2-methoxy-ethyl)-5-methyl-3-phenyl-1H-pyrrol-2-yl]-2-oxo-acetamide] | – | – | – | – | – | – | – | – | – | – | – | – | MIC grade, A. flavus (Aspergillus flavus [1]): 2 (A grade of 2 represents an MIC of from 1 to 10 mg/L); MIC grade, A. niger (Aspergillus niger [2]): 3 (A grade of 3 represents an MIC of less than 1 mg/L); MIC grade, A. fumigatus [3]: 3 (A grade of 3 represents an MIC of less than 1 mg/L); MIC grade, A. terreus 49 (Aspergillus terreus AT49 [4]): 3 (A grade of 3 represents an MIC of less than 1 mg/L); MIC grade, A. terreus (Aspergillus terreus AT4 [5]): 3 (A grade of 3 represents an MIC of less than 1 mg/L); MIC grade, A. fumigatus 210 [6]: 3 (A grade of 3 represents an MIC of less than 1 mg/L); MIC grade, A. flavus (Aspergillus flavus [7]): 2 (A grade of 2 represents an MIC of from 1 to 10 mg/L); MIC grade, A. niger (Aspergillus niger [8]): 3 (A grade of 3 represents an MIC of less than 1 mg/L); MIC grade, A. fumigatus ([9]; MIC banded into grades): 3 (A grade of 3 represents an MIC of less than 1 mg/L); MIC grade, A. terreus 49 (Aspergillus terreus AT49 [10]; MIC banded into grades): 2 (A grade of 2 represents an MIC of from 1 to 10 mg/L); MIC grade, A. terreus (Aspergillus terreus AT4 [11]; MIC banded into grades): 3 (A grade of 3 represents an MIC of less than 1 mg/L); MIC grade, A. fumigatus 210 ([12]; MIC banded into grades): 3 (A grade of 3 represents an MIC of less than 1 mg/L) |
| Cc1cc(C)nc(N2CCN(c3ccc(NC(=O)C(=O)c4cc(-c5ccccc5)cn4C)cc3)CC2)c1 [Example 46, N-{4-[4-(4,6-Dimethyl-pyridin-2-yl)-piperazin-1-yl]-phenyl}-2-(1-methyl-4-phenyl-1H-pyrrol-2-yl)-2-oxo-acetamide] | < 1 µg/mL | > 10 µg/mL | 1 to 10 µg/mL (≈ 2.03 to 20.3 µM) | < 1 µg/mL | > 10 µg/mL | < 1 µg/mL | > 10 µg/mL | > 10 µg/mL | > 10 µg/mL | 1 to 10 µg/mL (≈ 2.03 to 20.3 µM) | 1 to 10 µg/mL (≈ 2.03 to 20.3 µM) | > 10 µg/mL | – |
| COCCn1c(C)cc(-c2ccccc2)c1C(=O)C(=O)Nc1ccc(N2CCN(c3cc(C)cc(C)n3)CC2)c(Cl)c1 [Example 24, N-{3-Chloro-4-[4-(4,6-dimethyl-pyridin-2-yl)-piperazin-1-yl]-phenyl}-2-[1-(2-methoxy-ethyl)-5-methyl-3-phenyl-1H-pyrrol-2-yl]-2-oxo-acetamide] | < 1 µg/mL | < 1 µg/mL | < 1 µg/mL | < 1 µg/mL | < 1 µg/mL | < 1 µg/mL | 1 to 10 µg/mL (≈ 1.71 to 17.1 µM) | < 1 µg/mL | < 1 µg/mL | > 10 µg/mL | 1 to 10 µg/mL (≈ 1.71 to 17.1 µM) | < 1 µg/mL | – |
| COCCn1c(C)cc(-c2ccccc2)c1C(=O)C(=O)Nc1cccc2ccncc12 [Example 42, N-Isoquinolin-8-yl-2-[1-(2-methoxy-ethyl)-5-methyl-3-phenyl-1H-pyrrol-2-yl]-2-oxo-acetamide] | > 10 µg/mL | > 10 µg/mL | 1 to 10 µg/mL (≈ 2.42 to 24.2 µM) | > 10 µg/mL | > 10 µg/mL | 1 to 10 µg/mL (≈ 2.42 to 24.2 µM) | > 10 µg/mL | > 10 µg/mL | 1 to 10 µg/mL (≈ 2.42 to 24.2 µM) | > 10 µg/mL | > 10 µg/mL | > 10 µg/mL | – |
| CCCOCCn1c(C)cc(-c2ccccc2)c1C(=O)C(=O)Nc1ccc(N2CCN(c3cc(C)cc(C)n3)CC2)cc1 [Example 140, N-{4-[4-(4,6-Dimethyl-pyridin-2-yl)-piperazin-1-yl]-phenyl}-2-[5-methyl-3-phenyl-1-(2-propoxy-ethyl)-1H-pyrrol-2-yl]-2-oxo-acetamide] | 1 to 10 µg/mL (≈ 1.72 to 17.2 µM) | 1 to 10 µg/mL (≈ 1.72 to 17.2 µM) | 1 to 10 µg/mL (≈ 1.72 to 17.2 µM) | 1 to 10 µg/mL (≈ 1.72 to 17.2 µM) | 1 to 10 µg/mL (≈ 1.72 to 17.2 µM) | < 1 µg/mL | > 10 µg/mL | > 10 µg/mL | > 10 µg/mL | > 10 µg/mL | > 10 µg/mL | > 10 µg/mL | – |
| Cc1cc(C)nc(N2CCN(c3ccc(NC(=O)C(=O)c4c(-c5ccccc5)cc(C)n4C)cc3COCCN(C)C)CC2)c1 [Example 17, N-{3-(2-Dimethylamino-ethoxymethyl)-4-[4-(4,6-dimethyl-pyridin-2-yl)-piperazin-1-yl]-phenyl}-2-(1,5-dimethyl-3-phenyl-1H-pyrrol-2-yl)-2-oxo-acetamide] | 1 to 10 µg/mL (≈ 1.64 to 16.4 µM) | 1 to 10 µg/mL (≈ 1.64 to 16.4 µM) | 1 to 10 µg/mL (≈ 1.64 to 16.4 µM) | 1 to 10 µg/mL (≈ 1.64 to 16.4 µM) | 1 to 10 µg/mL (≈ 1.64 to 16.4 µM) | 1 to 10 µg/mL (≈ 1.64 to 16.4 µM) | > 10 µg/mL | > 10 µg/mL | > 10 µg/mL | > 10 µg/mL | > 10 µg/mL | > 10 µg/mL | – |
| Cc1cc(C)nc(N2CCN(c3ccc(NC(=O)C(=O)c4c(-c5ccccc5)cc(C)n4Cc4ccccc4)cc3)CC2)c1 [Example 48, 2-(1-Benzyl-5-methyl-3-phenyl-1H-pyrrol-2-yl)-N-{4-[4-(4,6-dimethyl-pyridin-2-yl)-piperazin-1-yl]-phenyl}-2-oxo-acetamide] | > 10 µg/mL | > 10 µg/mL | 1 to 10 µg/mL (≈ 1.71 to 17.1 µM) | > 10 µg/mL | > 10 µg/mL | < 1 µg/mL | > 10 µg/mL | > 10 µg/mL | > 10 µg/mL | > 10 µg/mL | > 10 µg/mL | > 10 µg/mL | – |
| COCCn1c(C)cc(-c2ccccc2)c1C(=O)C(=O)Nc1ccc(N2CCN(c3ccccn3)CC2)cc1F [Example 96, N-[2-Fluoro-4-(4-pyridin-2-yl-piperazin-1-yl)-phenyl]-2-[1-(2-methoxy-ethyl)-5-methyl-3-phenyl-1H-pyrrol-2-yl]-2-oxo-acetamide] | < 1 µg/mL | < 1 µg/mL | < 1 µg/mL | < 1 µg/mL | < 1 µg/mL | < 1 µg/mL | 1 to 10 µg/mL (≈ 1.85 to 18.5 µM) | < 1 µg/mL | < 1 µg/mL | 1 to 10 µg/mL (≈ 1.85 to 18.5 µM) | < 1 µg/mL | < 1 µg/mL | – |
